According to PubChem BioAssay (NCI):
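The compound was tested at five concentrations on cells cultured in 96-well plates, with a 48-hour exposure period. GI50 is the concentration that inhibits growth by half. The concentration for full growth arrest is given as TGI.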

Key:
Assay in all cases: NCI tumour cell line growth inhibition, 48 h
[1] = test system: PC-3 prostate
[2] = test system: KM20L2 colon
[3] = test system: LXFL 529 NSCLC
[4] = test system: DMS 114 small cell lung
[5] = test system: XF 498 CNS
[6] = test system: MDA-N
[7] = test system: P388 leukemia
[8] = test system: P388/ADR leukemia
[9] = test system: SN12K1 renal
[10] = test system: RXF-631 renal

SMILES	GI50 [1] [µM]	TGI [1] [µM]	TGI [2] [µM]	TGI [3] [µM]	TGI [4] [µM]	further results
CC(C)(C)CC(C)(C)NCc1cc(C(C)(C)C)cc(CNC(C)(C)CC(C)(C)C)c1O	2.86	12.2	–	–	–	–
CC(=O)[CH-]C(=O)c1ccccc1.CC(=O)[CH-]C(=O)c1ccccc1.CCOCC[O-].CCOCC[O-].[Ti+4]	–	–	> 100	29.1	–	GI50 [2]: 19.6 µM; GI50 [3]: 12.2 µM
Cc1cn2c(/C=N/N=C(N)N)c(-c3cccs3)nc2s1	2.99	12.4	–	–	–	–
C=C[C@@]1(O)CCCC2=C(C(=O)OCC)CC[C@]21C	–	–	–	> 100	> 100	–
CCOC(=O)CC1C(COC(=O)NC)OC(n2cnc3c(NC(=O)Nc4ccccc4)ncnc32)C1O[Si](C)(C)C(C)(C)C (centres undefined)	2.87	25.4	–	–	–	–
CCCC(CCC)C(=O)OCC1(CO)C/C(=C\c2ccc(F)cc2)C(=O)O1 (centres undefined)	10.4	25	–	–	–	–
COc1cc(-c2nc(-c3nc4ccccc4[nH]3)cc3c2[nH]c2ccccc23)cc(OC)c1OC	2.64	> 100	–	–	–	–
CC(C)(C)[Si](C)(C)OC1[C@@H](O[Si](C)(C)C(C)(C)C)[C@@H](CNC(=O)NC(=O)CCl)O[C@H]1n1cnc2c(NC(=O)Nc3ccccc3)ncnc21 (some centres undefined)	0.381	1.19	–	–	–	–
O=c1c2cccc3cccc(c4n1CCN=4)c32	–	–	> 100	> 100	> 100	TGI [5]: > 100 µM
Nc1ccn(C2OC(COC(=O)C34CC5CC(CC(C5)C3)C4)C(O)C2O)c(=O)n1 (centres undefined)	–	> 100	> 100	–	> 100	TGI [6]: > 100 µM; TGI [7]: > 100 µM; TGI [8]: > 100 µM; TGI [9]: > 100 µM
COC(C(=O)NCCCCNC(=O)C(OC)c1ccccc1)c1ccccc1 (centres undefined)	–	–	> 100	> 100	> 100	TGI [10]: > 100 µM; TGI [5]: > 100 µM
COc1ccc(OC)c2c1[nH]c(=O)c1c3ncccc3cn21	4.73	> 100	–	–	–	–
FC(F)(F)C1(Br)C(c2ccccc2)=C1c1ccccc1	–	–	36.3	28.1	31.4	TGI [10]: > 100 µM; TGI [5]: 30.7 µM
Cc1cc(N2CCSCC2)nc(NC2CCCC(Nc3ccnc4cc(Cl)ccc34)C2)n1 (centres undefined)	2.1	4.52	–	–	–	–
CC(C)(C)C(=O)OCC1CCC(n2cnc3c(=O)[nH]c(N)nc32)O1 (centres undefined)	–	–	> 100	–	> 100	TGI [5]: > 100 µM
N#CCN/C=C\C(=O)c1ccc(Cl)cc1	29.5	> 100	–	–	–	–
COc1ccc2nc3cc([N+](=O)[O-])ccc3c(NCCCN(C)C)c2c1	–	1.55	–	–	–	GI50 [6]: 0.491 µM; TGI [6]: 2 µM
O=C(O)C(Cl)(c1ccccc1)c1ccccc1	–	> 100	–	–	–	TGI [6]: > 100 µM
COc1cc(CNc2ccccc2C(=O)N2CCN(C(=O)c3cc(-c4cc(OC)c(OC)c(OC)c4)n4nc(-c5ccccc5)cc4n3)CC2)cc(OC)c1OC	2.35	> 100	–	–	–	–
O=c1[nH]c2cc(Cl)ccc2nc1/C(=N\O)C(O)c1ccc([N+](=O)[O-])cc1 (centres undefined)	–	–	> 100	> 100	> 100	TGI [5]: > 100 µM
CC1=NN(C(=O)c2ccc([N+](=O)[O-])cc2)C(=O)C1N=Nc1ccccc1C(=O)O (centres undefined)	–	–	–	> 100	> 100	–

SMILES	GI50 [1] [µM]	TGI [1] [µM]	TGI [2] [µM]	TGI [3] [µM]	TGI [4] [µM]	further results
CNC(=O)Cc1nc(-c2cccc(NS(=O)(=O)c3c(F)cccc3F)c2F)c(-c2ccnc(Nc3ccccc3)n2)s1	20.9	> 50	–	–	–	–
COc1cc(Nc2nc3ccccc3cc2C(=O)Nc2ccc(F)c(F)c2)cc(OC)c1OC	2.21	7.9	–	–	–	–
N#CC1=C(N)NC(N2CCOCC2)=NC12Nc1ccccc1N2	46.1	> 100	–	–	–	–
COc1ccc(/C=N\Nc2ccc([N+](=O)[O-])cn2)cc1OC	> 100	> 100	–	–	–	–
CCCCCCCCCCCCCCCCCC(=O)OCC(COC(=O)CCCN)OC(=O)CCCN (centres undefined)	–	35.5	–	–	–	TGI [6]: 39.4 µM
C/C=C/CC(C)[C@@H](O)[C@H](NC)C(=O)O (some centres undefined)	–	–	> 100	> 100	> 100	–
Cc1cc(C)c(Cn2cnc3c(Cl)ncnc32)c(C)c1CCl	> 100	> 100	–	–	–	–
CN/N=C(\C)C(CN(C)C)C(c1ccccc1)c1c(O)c2ccccc2oc1=O (centres undefined)	–	> 100	–	–	–	TGI [6]: > 100 µM
SCCSCCCSCCS	–	> 100	–	–	–	TGI [6]: > 100 µM
Cc1cc(N(CCC#N)S(C)(=O)=O)ccc1C=Nc1ccc(C(=O)NN2C(=O)/C(=C/c3ccc(N(CCC#N)CCC#N)cc3C)N=C2c2cc([N+](=O)[O-])ccc2Cl)cc1	–	–	> 100	> 100	> 100	TGI [10]: > 100 µM; TGI [5]: > 100 µM
O=C1/C(=C\c2ccccn2)c2ccccc2N1c1c(Cl)cccc1Cl	2.79	> 26.3	–	–	–	–
NC(=O)c1cccc(Nc2nccc(Nc3cccc4[nH]ncc34)n2)c1	8.73	> 25	–	–	–	–
Cc1cc(=O)oc2c(C)c(OCCCOc3ccc4c(C)cc(=O)oc4c3C)ccc12	–	–	> 100	> 100	> 100	TGI [5]: > 100 µM
CCN(CC)CCCC(C)N=C(C1=C(C(=NC(C)CCCN(CC)CC)c2cccc(OC)c2)C(=O)NC1=O)c1cccc(OC)c1 (centres undefined)	1.47	5.12	–	–	–	–
CC1(C)C2CC(=O)C1(C)C(OCc1ccccc1)C2 (centres undefined)	–	> 100	–	–	–	TGI [6]: > 100 µM
O=C(/C=C/c1ccccc1)n1c(-c2ccc(Cl)cc2)nc2ccccc21	1.91	6.73	–	–	–	–
CC/C(CC(=O)CCC(=O)Nc1ccccc1[N+](=O)[O-])=N/NC(=O)C[n+]1ccccc1	–	–	> 100	> 100	–	TGI [10]: > 100 µM
Cc1nc(N2CCC3(CC2)CO[C@@H](C)[C@H]3N)c(CO)nc1Sc1ccnc(N)c1Cl	> 100	> 100	–	–	–	–
CCc1cccc(CC)c1NC(=O)C1=C(C)NC(C)=C(C(=O)Nc2c(CC)cccc2CC)C1c1ccc([N+](=O)[O-])cc1	–	–	> 100	33.1	52.4	TGI [5]: 39.5 µM
COc1ccc(C(=O)c2cc3c(N)c(C(=O)Nc4ccc(C)cc4)sc3nc2C)cc1	4.2	> 100	–	–	–	–
COc1cc(CNC2c3cc4c(cc3C(c3cc(OC)c(OC)c(OC)c3)[C@H]3C(=O)OCC23)OCO4)cc(OC)c1OC (some centres undefined)	–	–	0.359	> 100	0.444	TGI [5]: 8.07 µM
